In patent publication US20240174690A1, “ANNULATED 2-AMINO-3-CYANO THIOPHENES AND DERIVATIVES FOR THE TREATMENT OF CANCER” (BOEHRINGER INGELHEIM INTERNATIONAL GMBH, priority 2021, published 2024):
Like-named read-outs stand apart in the source and are kept apart here.

Legend:
[1] = system: KRAS G12D-dependent Ba/F3 cells; test: Ba/F3 proliferation assay, KRAS G12D; format: cell-based; conditions: Mus musculus, BaF3, 72 h, AlamarBlue
In short: (§1)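 Transforming KRAS G12 mutants replaced IL-3 dependence in retrovirally engineered Ba/F3 cells, with puromycin omitted about ten days before testing. Growth under compound was quantified with an AlamarBlue fluorescent viability stain, in duplicate, by curve fitting.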

[2] = system: KRAS G12V-dependent Ba/F3 cells; test: Ba/F3 proliferation assay, KRAS G12V; format: cell-based; conditions: Mus musculus, BaF3, 72 h, AlamarBlue;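 also: proliferation IC50 in KRAS G12V-dependent Ba/F3 cells read by AlamarBlue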
In short: as §1

[3] = system: LOVO cells; test: LOVO CTG proliferation assay (120 h) (CRC, G13D); format: cell-based; conditions: Homo sapiens, CTG 120 h
In short: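 LOVO cells, 1000 per well in DMEM + 10% FCS, were plated overnight and then dosed with compound from DMSO stock. After 120 h at 37 °C, viability was read by CellTiter-Glo luminescence as a percentage of DMSO controls. IC50 was derived by four-parameter non-linear regression.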

[4] = system: NCI-H358 cells; test: NCI-H358 CTG proliferation assay (120 h) (NSCLC, G12C); format: cell-based, human; conditions: Homo sapiens
In short: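 NCI-H358 cells (KRAS G12C) were seeded at 2000/well (assay 1) or 200/well (assay 2) in RPMI-1640 + 10% FCS and dosed with a logarithmic series, DMSO-normalized. After 120 h, viability was read by CellTiter-Glo luminescence as percent of DMSO control, with a T0 read at dosing. IC50 came from a four-parameter fit.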

[5] = molecular target: CYP3A4 (Homo sapiens (Human), UniProt P08684); test: Mechanism based inhibition of CYP3A4 assay (MBI 3A4); format: in vitro ADME; conditions: hydroxy-midazolam formation after 30 min vs 0 min preincubation, 25 uM, human liver microsomes
Description: After preincubation, the incubate is diluted 1:10 and the substrate midazolam is added for the main incubation (15 min). The main incubation is quenched with acetonitrile and the formation of hydroxy-midazolam is quantified via LC/MS-MS. The formation of hydroxy-midazolam from the 30 min preincubation relative to the formation from the 0 min preincubation is used as a readout. Values of less than 100% mean that the substrate midazolam is metabolized to a lower extent upon 30 min preincubation compared to 0 min preincubation. In general low effects upon 30 min preincubation are desired (corresponding to values close to 100%/not different to the values determined with water control).

[6] = Metabolic (microsomal) stability assay, human liver microsomes (HLM); format: in vitro ADME; conditions: predicted clearance as percent of liver blood flow, 1 μM
In short: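 LC-MS/MS tracked parent disappearance at 0, 5, 15, 30 and 60 min in NADPH-initiated incubations with 1 mg/mL human microsomal protein and 1 μM compound at 37°C, pH 7.5. First-order fits gave intrinsic clearance, which was scaled up and reported as % QH. NADPH-free controls were also run.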

[7] = system: KRAS G12C-dependent Ba/F3 cells; test: Ba/F3 proliferation assay, KRAS G12C; format: cell-based; conditions: Mus musculus, BaF3, 72 h, AlamarBlue
In short: as §1

[8] = assay 2, CTG, read-out: H358 (assay 2) IC50
[9] = assay 1, CTG, read-out: H358 (assay 1) IC50

CYP3A4, sequence (P08684 whole entry): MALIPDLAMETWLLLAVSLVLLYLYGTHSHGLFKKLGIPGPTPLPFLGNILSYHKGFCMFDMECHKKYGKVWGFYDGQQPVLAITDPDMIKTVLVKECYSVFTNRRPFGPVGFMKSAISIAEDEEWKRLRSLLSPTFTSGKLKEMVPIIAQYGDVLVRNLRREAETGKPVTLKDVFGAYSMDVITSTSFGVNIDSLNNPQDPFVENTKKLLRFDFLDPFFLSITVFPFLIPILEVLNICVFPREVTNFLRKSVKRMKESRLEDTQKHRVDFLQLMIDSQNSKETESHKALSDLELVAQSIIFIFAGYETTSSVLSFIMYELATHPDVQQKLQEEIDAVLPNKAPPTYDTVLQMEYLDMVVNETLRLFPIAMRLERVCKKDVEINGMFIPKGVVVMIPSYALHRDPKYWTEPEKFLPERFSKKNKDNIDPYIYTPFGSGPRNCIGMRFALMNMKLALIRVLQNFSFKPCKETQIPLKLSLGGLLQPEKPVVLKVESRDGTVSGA

Compound	IC50 [1]	IC50 [2]	IC50 [3]	IC50 [4, 8]	MBI 3A4 [5]	HLM QH [6]	IC50 [7]	IC50 [4, 9]
C[C@H](O)Cn1ccc(-c2cc(O[C@@H](C)[C@@H]3CCCN3C)nc(-c3noc4c3CCC[C@@]43CCCc4sc(N)c(C#N)c43)n2)n1 [II-112]	42 nM	6 nM	58 nM	141 nM	81%	<24%	11 nM	
C[C@H](Oc1cc(-c2ccccn2)nc(-c2noc3c2CCC[C@@]32CCCc3sc(N)c(C#N)c32)n1)[C@@H]1CCCN1C [II-85]	72 nM	8 nM	209 nM	23 nM	52%	47%	19 nM	
C[C@H](Oc1cc(N2C[C@H](C)NC3(CC3)C2)nc(-c2onc3c2CCC[C@@]32CCCc3sc(N)c(C#N)c32)n1)[C@@H]1CCCN1C [I-8]	4 nM	258 nM	296 nM		25%	<24%	106 nM	874 nM
C[C@H](Oc1cc(N2C[C@H](C)N[C@@H](C)C2)nc(-c2noc3c2CCC[C@@]32CCCc3sc(N)c(C#N)c32)n1)[C@@H]1CCCN1C [II-56]	20 nM	166 nM	661 nM	173 nM	73%	<24%	233 nM	587 nM
C[C@H](Oc1cc(-c2cnn(C)n2)nc(-c2noc3c2CCC[C@@]32CCCc3sc(N)c(C#N)c32)n1)[C@@H]1CCCN1C [II-86]	59 nM	14 nM	77 nM	993 nM	68%	35%	25 nM	
CO[C@@H]1C[C@@H]([C@H](C)Oc2cc(-c3ccn(C)n3)nc(-c3noc4c3CCC[C@@]43CCCc4sc(N)c(C#N)c43)n2)N(C)C1 [II-91]	65 nM	8 nM	136 nM	19 nM	68%	46%	15 nM	78 nM
C[C@H](Oc1cc(N2C[C@H](C)N[C@@H](C)C2)nc(-c2onc3c2CCC[C@@]32CCCc3sc(N)c(C#N)c32)n1)[C@@H]1CCCN1C [I-6]	14 nM	316 nM	1220 nM		79%	<24%	253 nM	809 nM
C[C@H](Oc1cc(N2CC[C@@H](O)C2)nc(-c2noc3c2CCC[C@@]32CCCc3sc(N)c(C#N)c32)n1)[C@@H]1CCCN1C [II-66]	71 nM	29 nM	3680 nM	586 nM	71%	<24%	54 nM	
C[C@H](Oc1cc(-c2cn[nH]c2)nc(-c2noc3c2CCC[C@@]32CCCc3sc(N)c(C#N)c32)n1)[C@@H]1CCCN1C [II-87]	150 nM	25 nM	427 nM	106 nM	64%	<24%	47 nM	

Second part, the compound after the results:

IC50 [1]	IC50 [2]	IC50 [3]	IC50 [4, 8]	MBI 3A4 [5]	HLM QH [6]	IC50 [7]	IC50 [4, 9]	Compound
149 nM	13 nM	401 nM	190 nM	71%	47%	27 nM		C[C@H](Oc1cc(-n2ccnc2)nc(-c2noc3c2CCC[C@@]32CCCc3sc(N)c(C#N)c32)n1)[C@@H]1C[C@@H](F)CN1C [II-120]
57 nM	285 nM	495 nM	230 nM	80%	46%	292 nM		C[C@H](Oc1cc(-n2cc3c(n2)CCNC3)nc(-c2noc3c2CCC[C@@]32CCCc3sc(N)c(C#N)c32)n1)[C@@H]1CCCN1C [II-53]
23 nM	5 nM	231 nM	98 nM	85%	<24%	8 nM		C[C@H](Oc1cc(-c2ccn(C)n2)nc(-c2noc3c2CCC[C@@]32CCCc3sc(N)c(C#N)c32)n1)[C@@H]1CCCN1C [II-96]
133 nM	26 nM	295 nM	295 nM	45%	25%	25 nM		C[C@H](Oc1cc(-n2cc(C3CC3)nn2)nc(-c2noc3c2CCC[C@@]32CCCc3sc(N)c(C#N)c32)n1)[C@@H]1CCCN1C [II-118]
24 nM	416 nM	1710 nM	1980 nM	78%	<24%	331 nM		C[C@H](Oc1cc(N2CC[C@H](N(C)C)C2)nc(-c2onc3c2CCC[C@@]32CCCc3sc(N)c(C#N)c32)n1)[C@@H]1CCCN1C [I-11]
63 nM	302 nM	1090 nM	588 nM	88%	<24%	297 nM		C[C@H](Oc1cc(N2CCN(C)CC2)nc(-c2noc3c2CCC[C@@]32CCCc3sc(N)c(C#N)c32)n1)[C@@H]1CCCN1C [II-55]
51 nM	13 nM	92 nM	217 nM	67%	47%	14 nM		C[C@H](Oc1cc(-n2ccc(Br)n2)nc(-c2noc3c2CCC[C@@]32CCCc3sc(N)c(C#N)c32)n1)[C@@H]1CCCN1C [II-110]
1 nM	157 nM	531 nM	908 nM	31%	28%	74 nM	298 nM	C[C@H](Oc1cc(N2CCNC3(CC3)C2)nc(-c2noc3c2CCC[C@@]32CCCc3sc(N)c(C#N)c32)n1)[C@@H]1CCCN1C [II-54]
46 nM	4 nM	309 nM	139 nM	76%	<24%	10 nM		C[C@H](Oc1cc(-c2cnsc2)nc(-c2noc3c2CCC[C@@]32CCCc3sc(N)c(C#N)c32)n1)[C@@H]1CCCN1C [II-111]
107 nM	23 nM	993 nM	2250 nM	61%	44%	31 nM		Cc1cn(-c2cc(O[C@@H](C)[C@@H]3CCCN3C)nc(-c3noc4c3CCC[C@@]43CCCc4sc(N)c(C#N)c43)n2)nn1 [II-106]
47 nM	5 nM	77 nM	131 nM	64%	61%	25 nM		C[C@H](Oc1cc(-n2cncn2)nc(-c2noc3c2CCC[C@@]32CCCc3sc(N)c(C#N)c32)n1)[C@@H]1CCCN1C [II-70]
7 nM	393 nM	1630 nM	2710 nM	54%	52%	270 nM		C[C@H](Oc1cc(N2CCNC[C@]23CCOC3)nc(-c2noc3c2CCC[C@@]32CCCc3sc(N)c(C#N)c32)n1)[C@@H]1CCCN1C [II-50]
11 nM	3 nM	51 nM	20 nM	71%	48%	5 nM	20 nM	C[C@H](Oc1cc([C@@H]2CCOC2)nc(-c2noc3c2CCC[C@@]32CCCc3sc(N)c(C#N)c32)n1)[C@@H]1CCCN1C [II-94]
